Assay results as given in ChEMBL document CHEMBL2396568, “An insight into synthetic Schiff bases revealing antiproliferative activities in vitro” (Bioorg Med Chem, 2013).

Experiments:
MCF7 [1] = experiment: Antiproliferative activity against human MCF7 cells after 24 hrs by MTT assay; format: functional, cell-based; settings: MCF7, 24 h
PC-3 = experiment: Antiproliferative activity against human PC3 cells after 24 hrs by MTT assay; format: functional, cell-based; settings: PC-3, 24 h
A2780 [2] = experiment: Antiproliferative activity against cisplatin-resistant human A2780 cells after 72 hrs by MTT assay; format: functional, cell-based; settings: A2780, 72 h
A2780 [3] = experiment: Antiproliferative activity against human A2780 cells after 72 hrs by MTT assay; format: functional, cell-based; settings: A2780, 72 h
[4] = Antiproliferative activity against human SW707 cells after 72 hrs by sulforhodamine B assay; format: functional; settings: SW707, 72 h, read-out: ID50 (the source's name)
[5] = Antiproliferative activity against human HCV29T cells after 72 hrs by sulforhodamine B assay; format: functional; settings: read-out: ID50 (the source's name)
WIL2-NS = experiment: Antiproliferative activity against human WIL2-NS cells after 96 hrs by MTT assay; format: functional, cell-based
CCRF-CEM = experiment: Antiproliferative activity against human CCRF-CEM cells after 96 hrs by MTT assay; format: functional, cell-based
CCRF-SB = experiment: Antiproliferative activity against human CCRF-SB cells after 96 hrs by MTT assay; format: functional, cell-based
MT4 = experiment: Antiproliferative activity against human MT4 cells after 96 hrs by MTT assay; format: functional, cell-based; settings: MT4, 96 h
MCF7 [6] = experiment: Antiproliferative activity against human MCF7 cells after 96 hrs by MTT assay; format: functional, cell-based; settings: MCF7, 96 h
SK-MEL-28 = experiment: Antiproliferative activity against human SK-MEL-28 cells after 96 hrs by MTT assay; format: functional, cell-based; settings: SK-MEL-28, 96 h
HCT-116 [7] = experiment: Selectivity ratio of IC50 for human HCT116 cells to IC50 for human Hep2 cells; format: functional
HEp-2 = experiment: Antiproliferative activity against human Hep2 cells after 48 hrs by sulforhodamine B assay; format: functional, cell-based; settings: HEp-2, 48 h
HCT-116 [8] = experiment: Antiproliferative activity against human HCT116 cells after 48 hrs by sulforhodamine B assay; format: functional, cell-based; settings: HCT-116, 48 h
HeLa [9] = experiment: Antiproliferative activity against human HeLa cells after 48 hrs by MTT assay; format: functional, cell-based
A549 [10] = experiment: Antiproliferative activity against human A549 cells after 48 hrs by MTT assay; format: functional, cell-based; settings: A549, 48 h
HeLa [11] = experiment: Antiproliferative activity against human HeLa cells after 24 hrs by MTT assay; format: functional, cell-based
A549 [12] = experiment: Antiproliferative activity against human A549 cells after 24 hrs by MTT assay; format: functional, cell-based; settings: A549, 24 h
KB [13] = experiment: Antiproliferative activity against hydroxyurea-resistant human KB cells after 24 hrs by MTS assay; format: functional, cell-based
KB [14] = experiment: Antiproliferative activity against wild-type human KB cells after 24 hrs by MTS assay; format: functional, cell-based
K562 = experiment: Antiproliferative activity against human K562 cells by MTT assay; format: functional, cell-based
MCF7 [15] = experiment: Antiproliferative activity against doxorubicin-resistant human MCF7 cells after 72 hrs by neutral red uptake assay; format: functional, cell-based; settings: mcf7
KB [16] = experiment: Antiproliferative activity against human KB cells after 72 hrs by neutral red uptake assay; format: functional, cell-based; settings: kb
MCF7 [17] = experiment: Antiproliferative activity against wild-type human MCF7 cells after 72 hrs by neutral red uptake assay; format: functional, cell-based; settings: mcf7

In the case of `Oc1ccccc1/C=N\CCn1cccn1`, the IC50 (MCF7 [1]) is reported as 715 µM and the IC50 (PC-3) is reported as 522 µM.
With `Oc1c(Cl)cc(Cl)cc1/C=N\CCn1cccn1` the IC50 (A2780 [2]) was 26 µM, the IC50 (MCF7 [1]) was 32 µM and the IC50 (A2780 [3]) was 27 µM. The IC50 (PC-3) was 39 µM.
For `Oc1c(I)cc(I)cc1/C=N\CCn1cccn1`, the IC50 (A2780 [2]) was 25 µM, the IC50 (MCF7 [1]) was 34 µM and the IC50 (A2780 [3]) was 20 µM. For the same compound, the IC50 (PC-3) was 32 µM.
`COc1ccc(/C=N/c2nc3ccccc3[nH]2)cc1` gave an IC50 [4] of 183 µM and an IC50 [5] of 179 µM.
Work on `COc1ccc(/C=N/c2nc3ccccc3[nH]2)cc1OC` yielded an IC50 [4] of 154 µM and an IC50 [5] of 106 µM.
With `COc1cc(/C=N/c2nc3ccccc3[nH]2)cc(OC)c1OC` the IC50 [4] was 50.4 µM and the IC50 [5] was 52.4 µM.
`Brc1ccccc1/C=N/c1nc2ccccc2[nH]1` showed an IC50 [4] of 26.3 µM and an IC50 [5] of 35.3 µM.
Compound `Brc1ccc(/C=N/c2nc3ccccc3[nH]2)cc1` has an IC50 [4] of 33.3 µM and an IC50 [5] of 32 µM.
Compound `Clc1ccccc1/C=N/c1nc2ccccc2[nH]1` has an IC50 [4] of 63.4 µM and an IC50 [5] of 31.7 µM.
Compound `Clc1cccc(/C=N/c2nc3ccccc3[nH]2)c1` has an IC50 [4] of 52.4 µM and an IC50 [5] of 75.5 µM.
In the case of `O=[N+]([O-])c1ccc(/C=N/c2nc3ccccc3[nH]2)cc1`, the IC50 [4] is reported as 87.1 µM and the IC50 [5] is reported as 88.3 µM.
`FC(F)(F)c1ccc(/C=N/c2nc3ccccc3[nH]2)cc1` showed an IC50 [5] of 200 µM.
In the case of `Clc1cccc(/C=N\c2nsc3ccccc23)c1`, the IC50 (WIL2-NS) is reported as 10 µM, the IC50 (CCRF-CEM) is reported as 2 µM and the IC50 (CCRF-SB) is reported as 4 µM. For the same compound, the IC50 (MT4) was 6 µM.
For `COc1cccc(/C=N\c2nsc3ccccc23)c1O`, the IC50 (WIL2-NS) was 10 µM, the IC50 (CCRF-CEM) was 2 µM and the IC50 (CCRF-SB) was 5 µM. The IC50 (MT4) was 5 µM.
For `COc1cc(/C=N\c2nsc3ccccc23)ccc1O`, the IC50 (WIL2-NS) was 10 µM, the IC50 (CCRF-CEM) was 2.5 µM and the IC50 (CCRF-SB) was 4 µM. It also gave an IC50 (MT4) of 5 µM.
Work on `O=[N+]([O-])c1ccc(/C=N\c2nsc3ccccc23)o1` yielded an IC50 (MCF7 [6]) of 10 µM, an IC50 (WIL2-NS) of 6.5 µM and an IC50 (SK-MEL-28) of 6 µM. The IC50 (CCRF-CEM) was 2 µM, the IC50 (CCRF-SB) was 5 µM and the IC50 (MT4) was 2 µM.
For `Cc1ccc2snc(/N=C\c3ccccc3O)c2c1`, the IC50 (WIL2-NS) was 6 µM, the IC50 (CCRF-CEM) was 2 µM and the IC50 (CCRF-SB) was 3 µM. The IC50 (MT4) was 5 µM.
Work on `Cc1ccc2snc(/N=C\c3ccccc3Cl)c2c1` yielded an IC50 (WIL2-NS) of 5 µM, an IC50 (CCRF-CEM) of 1.5 µM and an IC50 (CCRF-SB) of 3 µM. It also gave an IC50 (MT4) of 3 µM.
`Cc1ccc2snc(/N=C\c3cccc(Cl)c3)c2c1` gave an IC50 (WIL2-NS) of 7 µM, an IC50 (CCRF-CEM) of 1.5 µM and an IC50 (CCRF-SB) of 4 µM. The IC50 (MT4) was 2 µM.
For `COc1ccc(/C=N\c2nsc3ccc(C)cc23)cc1`, the IC50 (WIL2-NS) was 6.5 µM, the IC50 (CCRF-CEM) was 1.5 µM and the IC50 (CCRF-SB) was 4 µM. For the same compound, the IC50 (MT4) was 4 µM.
In the case of `Oc1ccc(Br)cc1/C=N/Cc1cccs1`, the “Ratio IC50” value (HCT-116 [7]) is reported as >2, the IC50 (HEp-2) is reported as 3.8 µM and the IC50 (HCT-116 [8]) is reported as 9.1 µM.
With `O=[N+]([O-])c1ccc(/C=N/c2ccccc2)cc1` the IC50 (HeLa [9]) was 123 µM, the IC50 (A549 [10]) was 1.6 µM and the IC50 (HeLa [11]) was 165 µM. It also gave an IC50 (A549 [12]) of 2 µM.
In the case of `FC(F)(F)c1ccc(/C=N/c2ccccc2)cc1`, the IC50 (HeLa [9]) is reported as 0.9 µM, the IC50 (A549 [10]) is reported as 138 µM and the IC50 (HeLa [11]) is reported as 1.9 µM. For the same compound, the IC50 (A549 [12]) was 161 µM.
For `O=C(NO)N/N=C/c1cc(Cl)cc(Cl)c1O`, the IC50 (KB [13]) was 21.2 µM and the IC50 (KB [14]) was 22.2 µM.
Compound `CSC(=S)N/N=C(\c1ccccc1)c1ccccn1` has an IC50 (K562) of 35 µM.
`CC/N=C/c1c(O)c(O)c(C(C)C)c2cc(C)c(-c3c(C)cc4c(C(C)C)c(O)c(O)c(/C=N/CC)c4c3O)c(O)c12` (stereo in doubt; (+)-74) showed an IC50 (MCF7 [15]) of 0.3 µM, an IC50 (KB [16]) of 1.6 µM and an IC50 (MCF7 [17]) of 1 µM.
For `CC/N=C/c1c(O)c(O)c(C(C)C)c2cc(C)c(-c3c(C)cc4c(C(C)C)c(O)c(O)c(/C=N/CC)c4c3O)c(O)c12` (stereo in doubt; (+/-)-74), the IC50 (MCF7 [15]) was 0.4 µM, the IC50 (KB [16]) was 1 µM and the IC50 (MCF7 [17]) was 5 µM.
`CC/N=C/c1c(O)c(O)c(C(C)C)c2cc(C)c(-c3c(C)cc4c(C(C)C)c(O)c(O)c(/C=N/CC)c4c3O)c(O)c12` (stereo in doubt; (-)-74) showed an IC50 (MCF7 [15]) of 0.8 µM, an IC50 (KB [16]) of 0.3 µM and an IC50 (MCF7 [17]) of 0.2 µM.
